For this experiment, the system named is TNCB-induced atopic dermatitis in mice ears. Put plainly: TNCB-induced atopic dermatitis in mice: ear thickness, ear weight, ear appearance, histopathology. In kind it is in vivo, BALB/c mice. The note with it: for Pathological slice average inflammation degree (average severity of the pathological changes): mice ears, HE staining, after three weeks of daily test substance, scale Grade 1 minimal to Grade 5 extremely severe. On the procedure:
The animals used in the experiments were 8-week-old BALB/c mice (purchased from LESCO Biotech), the body weight were 25 to 28 g and were quarantined by veterinarians for one week before entering the breeding room. The animals were divided into 9 groups, 3 in each group, a total of 27 mices. The temperature of the breeding room was set at 21±2° C., the humidity was set at 30 to 70%, and the environment was set for 12/12 hour light-dark cycle with unlimited supply of food and water.
In the animal experiments, 2-chloro-1,3,5-trinitrobezene (TNCB) was used to induce atopic dermatitis in mice and acetone was used as the solvent to prepare 1% of TNCB which was applied to mice ears (once every 2 days, the volume was 4 ml/kg) one week prior to testings. […] In addition, for those groups that were simultaneously provided with test ointments and test oral substances, the oral dose was 60 mg/kg and the volume was 10 ml/kg. When TNCB and the test substance were given on the same day, in order to reduce the effect of interactions between each other, TNCB and test substance were given at least 1 hour apart. The mangosteen paste of 0.5%, 1%, 2%, 3%, 5% respectively contained 20 mg/kg, 40 mg/kg, 80 mg/kg, 120 mg/kg and 200 mg/kg of extract of mangosteen rind.
Changes in body weight and ear thickness of the mice were monitored twice weekly. Blood of all experimental animals were collected before TNCB induction, after the induction and before the test substance was given and when being sacrificed. After the blood was centrifuged at 3000 rpm for 30 minutes at 4° C., serum samples were obtained and stored.
All animals were sacrificed at the end of the third week after the test substance was given. Mice ears were removed, photographed and stored in 10% of formalin solution for histopathological observation. HE staining was used for the pathological observation (conducted by the National Laboratory Animal Center).
Data are expressed as means±standard deviation […] and Student's t-test was used to compare the differences among treatment groups. Asterisks indicate significant differences, *p<0.05; **p<0.01; ***p<0.001.

Where [1] appears, read: inner rind versus outer rind extract experiment (4%).

Take `CC(=O)OCC(=O)[C@@]1(O)CC[C@H]2[C@@H]3CCC4=CC(=O)CC[C@]4(C)[C@H]3[C@@H](O)C[C@@]21C` [1% Hydrocortisone Acetate, hydrocortisone acetate]: the “Pathological slice average inflammation degree (average severity of the pathological changes)” value is 3 ± 0 Grade. In addition, the “Inhibition rate, ear thickness” value (degree of swelling of mice ears, compared with the model group, mangosteen paste dose series) was found to be 52.7%. The “Ear appearance after being sacrificed” value (ears removed at end of experiment (FIG. 4)) is “intact ear contour”. For the setting “ears weighed after sacrifice, compared with the model group, mangosteen paste dose series”, the “Inhibition rate, ear weight” value is listed as 82.4%. Under setting [1], the “Inhibition rate (%), ear thickness” value came to 50.75% and the “Inhibition rate (%), ear weight” value worked out at 68.91%. Under “listed as 1% hydrocortisone acetate”, the “Pathological slice average inflammation degree (average severity of the pathological changes)” value is 3 Grade.
